Test results from patent US12435060B2, “Acylamino bridged heterocyclic compound, and composition and application thereof” (BEIJING SCITECH-MQ PHARMACEUTICALS LIMITED, priority 2019, dated 2025).

System: HT29 cells
Assay: Inhibition of cell necrosis (CCK8 method), induced programmed necrosis of HT29 cells
Assay type: cell-based
Conditions: Homo sapiens, HT-29; rescue from necrosis induced by TNF-α 20 ng/mL, AT-406 1 μM, Z-VAD-FMK 20 μM; 16-20 hours; CCK-8, OD 450 nm
In short: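 Rescue from programmed necrosis was scored by CCK-8 absorbance at 450 nm after 16-20 h of TNF-α (20 ng/mL), AT-406 (1 μM) and Z-VAD-FMK (20 μM) at 37 °C, 5% CO2. HT29 cells had received compound 30 min earlier across nine 4-fold dilutions (top 25000 nM final). IC50 came from % inhibition relative to uninduced and induced-only wells.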

Compound	IC50 [nM]
CCc1ccc(F)c(Cc2nnc(C(=O)Nc3cc(-c4cc(OCCCC(C)(C)O)ccc4Cl)ccn3)[nH]2)c1 [Example 350, N-(4-(2-chloro-5-((4-hydroxy-4-methylpentyl)oxy)phenyl)pyridin-2-yl)-5-(5-ethyl-2-fluorobenzyl)-4H-1,2,4-triazole-3-carboxamide]	100 to 1000
CC(C)(O)CCCOc1ccc(Cl)c(-c2ccnc(NC(=O)c3nnc(Cc4ccc(F)c(F)c4F)[nH]3)c2)c1 [Example 351, N-(4-(2-chloro-5-((4-hydroxy-4-methylpentyl)oxy)phenyl)pyridin-2-yl)-5-(2,3,4-trifluorobenzyl)-4H-1,2,4-triazole-3-carboxamide]	100 to 1000
CC(C)(O)CCCOc1ccc(Cl)c(-c2ccnc(NC(=O)c3nnc(Cc4cc(F)cc(F)c4F)[nH]3)c2)c1 [Example 352, N-(4-(2-chloro-5-((4-hydroxy-4-methylpentyl)oxy)phenyl)pyridin-2-yl)-5-(2,3,5-trifluorobenzyl)-4H-1,2,4-triazole-3-carboxamide]	100 to 1000
CC(C)(O)CCCOc1ccc(Cl)c(-c2ccnc(NC(=O)c3nnc(Cc4c(F)ccc(F)c4F)[nH]3)c2)c1 [Example 353, N-(4-(2-chloro-5-((4-hydroxy-4-methylpentyl)oxy)phenyl)pyridin-2-yl)-5-(2,3,6-trifluorobenzyl)-4H-1,2,4-triazole-3-carboxamide]	≤ 100
CC(C)(O)CCCOc1ccc(Cl)c(-c2ccnc(NC(=O)c3nnc(Cc4cc(F)c(F)c(F)c4)[nH]3)c2)c1 [Example 354, N-(4-(2-chloro-5-((4-hydroxy-4-methylpentyl)oxy)phenyl)pyridin-2-yl)-5-(3,4,5-trifluorobenzyl)-4H-1,2,4-triazole-3-carboxamide]	100 to 1000
CC(C)(O)CCCOc1ccc(Cl)c(-c2ccnc(NC(=O)c3nnc(Cc4cc(F)c(F)cc4F)[nH]3)c2)c1 [Example 355, N-(4-(2-chloro-5-((4-hydroxy-4-methylpentyl)oxy)phenyl)pyridin-2-yl)-5-(2,4,5-trifluorobenzyl)-4H-1,2,4-triazole-3-carboxamide]	100 to 1000
CC(C)(O)CCCOc1ccc(Cl)c(-c2ccnc(NC(=O)c3nnc(CC4CCCC4)[nH]3)c2)c1 [Example 356, N-(4-(2-chloro-5-((4-hydroxy-4-methylpentyl)oxy)phenyl)pyridin-2-yl)-5-(cyclopentylmethyl)-4H-1,2,4-triazole-3-carboxamide]	≤ 100
CC(C)(O)CCCOc1ccc(Cl)c(-c2ccnc(NC(=O)c3nnc(CC4CCCCC4)[nH]3)c2)c1 [Example 357, N-(4-(2-chloro-5-((4-hydroxy-4-methylpentyl)oxy)phenyl)pyridin-2-yl)-5-(cyclohexylmethyl)-4H-1,2,4-triazole-3-carboxamide]	≤ 100
CC(C)(O)CCCOc1ccc(Cl)c(-c2ccnc(NC(=O)c3nnc(CN4CCCC4)[nH]3)c2)c1 [Example 358, N-(4-(2-chloro-5-((4-hydroxy-4-methylpentyl)oxy)phenyl)pyridin-2-yl)-5-(pyrrolidin-1-ylmethyl)-4H-1,2,4-triazole-3-carboxamide]	> 10000
CCC(O)(CC)CCCOc1ccc(Cl)c(-c2ccnc(NC(=O)c3nnc(Cc4ccccc4)[nH]3)c2)c1 [Example 359, 5-benzyl-N-(4-(2-chloro-5-((4-ethyl-4-hydroxyhexyl)oxy)phenyl)pyridin-2-yl)-4H-1,2,4-triazole-3-carboxamide]	≤ 100
CCC(O)(CC)CCCOc1ccc(Cl)c(-c2ccnc(NC(=O)c3nnc(Cc4ccccc4F)[nH]3)c2)c1 [Example 360, N-(4-(2-chloro-5-((4-ethyl-4-hydroxyhexyl)oxy)phenyl)pyridin-2-yl)-5-(2-fluorobenzyl)-4H-1,2,4-triazole-3-carboxamide]	≤ 100
CCC(O)(CC)CCCOc1ccc(Cl)c(-c2ccnc(NC(=O)c3nnc(CC4CCCC4)[nH]3)c2)c1 [Example 361, N-(4-(2-chloro-5-((4-ethyl-4-hydroxyhexyl)oxy)phenyl)pyridin-2-yl)-5-(cyclopentylmethyl)-4H-1,2,4-triazole-3-carboxamide]	≤ 100
CCC(O)(CC)CCCOc1ccc(Cl)c(-c2ccnc(NC(=O)c3nnc(CC4CCCCC4)[nH]3)c2)c1 [Example 362, N-(4-(2-chloro-5-((4-ethyl-4-hydroxyhexyl)oxy)phenyl)pyridin-2-yl)-5-(cyclohexylmethyl)-4H-1,2,4-triazole-3-carboxamide]	≤ 100
CC(C)(O)COc1ccc(Cl)c(-c2ccnc(NC(=O)c3nnc(Cc4ccccc4)[nH]3)c2)c1 [Example 363, 5-benzyl-N-(4-(2-chloro-5-(2-hydroxyl-2-methylpropoxy)phenyl)pyridin-2-yl)-4H-1,2,4-triazole-3-carboxamide]	≤ 100
CC(C)(O)COc1ccc(Cl)c(-c2ccnc(NC(=O)c3nnc(Cc4ccccc4F)[nH]3)c2)c1 [Example 364, 5-(2-fluorobenzyl)-N-(4-(2-chloro-5-(2-hydroxyl-2-methylpropoxy)phenyl)pyridin-2-yl)-4H-1,2,4-triazole-3-carboxamide]	≤ 100
CC(C)(O)COc1ccc(Cl)c(-c2ccnc(NC(=O)c3nnc(CC4CCCC4)[nH]3)c2)c1 [Example 365, N-(4-(2-chloro-5-(2-hydroxyl-2-methylpropoxy)phenyl)pyridin-2-yl)-5-(cyclopentylmethyl)-4H-1,2,4-triazole-3-carboxamide]	≤ 100

Compound	IC50 [nM]
CC(C)(O)COc1ccc(Cl)c(-c2ccnc(NC(=O)c3nnc(CC4CCCCC4)[nH]3)c2)c1 [Example 366, N-(4-(2-chloro-5-(2-hydroxyl-2-methylpropoxy)phenyl)pyridin-2-yl)-5-(cyclohexylmethyl)-4H-1,2,4-triazole-3-carboxamide]	≤ 100
CC(C)(O)CCCCOc1ccc(Cl)c(-c2ccnc(NC(=O)c3nnc(Cc4ccccc4)[nH]3)c2)c1 [Example 367, 5-benzyl-N-(4-(2-chloro-5-((5-hydroxyl-5-methylhexyl)oxy)phenyl)pyridin-2-yl)-4H-1,2,4-triazole-3-carboxamide]	≤ 100
CC(C)(O)CCCCOc1ccc(Cl)c(-c2ccnc(NC(=O)c3nnc(Cc4ccccc4F)[nH]3)c2)c1 [Example 368, 5-(2-fluorobenzyl)-N-(4-(2-chloro-5-((5-hydroxyl-5-methylhexyl)oxy)phenyl)pyridin-2-yl)-4H-1,2,4-triazole-3-carboxamide]	≤ 100
CC(C)(O)CCCCOc1ccc(Cl)c(-c2ccnc(NC(=O)c3nnc(CC4CCCC4)[nH]3)c2)c1 [Example 369, N-(4-(2-chloro-5-((5-hydroxyl-5-methylhexyl)oxy)phenyl)pyridin-2-yl)-5-(cyclopentylmethyl)-4H-1,2,4-triazole-3-carboxamide]	≤ 100
CC(C)(O)CCCCOc1ccc(Cl)c(-c2ccnc(NC(=O)c3nnc(CC4CCCCC4)[nH]3)c2)c1 [Example 370, N-(4-(2-chloro-5-((5-hydroxyl-5-methylhexyl)oxy)phenyl)pyridin-2-yl)-5-(cyclohexylmethyl)-4H-1,2,4-triazole-3-carboxamide]	≤ 100
O=C(Nc1cc(-c2cc(OCCCCO)ccc2Cl)ccn1)c1nnc(Cc2ccccc2)[nH]1 [Example 371, 5-benzyl-N-(4-(2-chloro-5-(4-hydroxybutoxy)phenyl)pyridin-2-yl)-4H-1,2,4-triazole-3-carboxamide]	≤ 100
O=C(Nc1cc(-c2cc(OCCCCO)ccc2Cl)ccn1)c1nnc(Cc2ccccc2F)[nH]1 [Example 372, 5-(2-fluorobenzyl)-N-(4-(2-chloro-5-(4-hydroxybutoxy)phenyl)pyridin-2-yl)-4H-1,2,4-triazole-3-carboxamide]	≤ 100
O=C(Nc1cc(-c2cc(OCCCCO)ccc2Cl)ccn1)c1nnc(CC2CCCC2)[nH]1 [Example 373, N-(4-(2-chloro-5-(4-hydroxybutoxy)phenyl)pyridin-2-yl)-5-(cyclopentylmethyl)-4H-1,2,4-triazole-3-carboxamide]	≤ 100
O=C(Nc1cc(-c2cc(OCCCCO)ccc2Cl)ccn1)c1nnc(CC2CCCCC2)[nH]1 [Example 374, N-(4-(2-chloro-5-(4-hydroxybutoxy)phenyl)pyridin-2-yl)-5-(cyclohexylmethyl)-4H-1,2,4-triazole-3-carboxamide]	≤ 100
O=C(Nc1cc(-c2cc(OCCCCCO)ccc2Cl)ccn1)c1nnc(Cc2ccccc2)[nH]1 [Example 375, 5-benzyl-N-(4-(2-chloro-5-((5-hydroxypentyl)oxy)phenyl)pyridin-2-yl)-4H-1,2,4-triazole-3-carboxamide]	≤ 100
O=C(Nc1cc(-c2cc(OCCCCCO)ccc2Cl)ccn1)c1nnc(Cc2ccccc2F)[nH]1 [Example 376, 5-(2-fluorobenzyl)-N-(4-(2-chloro-5-((5-hydroxypentyl)oxy)phenyl)pyridin-2-yl)-4H-1,2,4-triazole-3-carboxamide]	≤ 100
O=C(Nc1cc(-c2cc(OCCCCCO)ccc2Cl)ccn1)c1nnc(CC2CCCC2)[nH]1 [Example 377, N-(4-(2-chloro-5-((5-hydroxypentyl)oxy)phenyl)pyridin-2-yl)-5-(cyclopentylmethyl)-4H-1,2,4-triazole-3-carboxamide]	≤ 100
O=C(Nc1cc(-c2cc(OCCCCCO)ccc2Cl)ccn1)c1nnc(CC2CCCCC2)[nH]1 [Example 378, N-(4-(2-chloro-5-((5-hydroxypentyl)oxy)phenyl)pyridin-2-yl)-5-(cyclohexylmethyl)-4H-1,2,4-triazole-3-carboxamide]	≤ 100
COCCOc1ccc(Cl)c(-c2ccnc(NC(=O)c3nnc(Cc4ccccc4)[nH]3)c2)c1 [Example 379, 5-benzyl-N-(4-(2-chloro-5-(2-methoxyethoxy)phenyl)pyridin-2-yl)-4H-1,2,4-triazole-3-carboxamide]	100 to 1000
COCCOc1ccc(Cl)c(-c2ccnc(NC(=O)c3nnc(Cc4ccccc4F)[nH]3)c2)c1 [Example 380, 5-(2-fluorobenzyl)-N-(4-(2-chloro-5-(2-methoxyethoxy)phenyl)pyridin-2-yl)-4H-1,2,4-triazole-3-carboxamide]	≤ 100
